This is an account of results in patent publication US20100166826A1, “BIODEGRADABLE INTRAVAGINAL DEVICES FOR DELIVERY OF THERAPEUTICS” (University of Uath Research Foundation, priority 2007, published 2010).

A short description of this series: release of TMC120 from degradable polyurethane (FIG. 5). Type of series: physicochemical. The conditions noted are these: period of one month; from degradable polyurethane made from terathane-co-(caprolactone), 4,4′-methylenebis-cyclohexane diisocyanate and 1,4-butanediol.

Turning to `Cc1cc(C)c(Nc2ccnc(Nc3ccc(C#N)cc3)n2)c(C)c1` [TMC120, 4-[4-(mesitylamino)pyrimidin-2-ylamino)-benzonitrile], the “release profile of TMC120” value is listed as “sustained release profile”.
